Results: patent US20250368637A1, “SOLID-STATE FORMS OF N-(2-(4-CYANOTHIAZOLIDIN-3-YL)-2-OXOETHYL)-6-MORPHOLINOQUINOLINE-4-CARBOXAMIDE” (AstraZeneca AB, priority 2022, published 2025)

What was measured:
FAP Cyno Plasma = FAP Cyno Plasma (Macaca fascicularis, UniProt A0A2K5VGH4); experiment: FAP plasma inhibition assay, cynomolgus plasma; format: biochemical; conditions: cynomolgus plasma dilution 1:40
Experimental: Plasma (anticoagulant K2EDTA) was used as the enzyme source: Human plasma (Pooled from AZ Biobank), Mouse plasma (AZ AST Biobank), and Cynomolgus plasma (BioIVT, #NHP00PLK2FNN, lot CYN222895). 384-Well black fluotrack PS plates (Greiner 781076) were used. 20 μL diluted plasma (Cynomolgus and Human plasma dilution 1:40, Mouse plasma dilution 1:67) in buffer (PBS, 0.1% BSA) was added to 0.6 μL compounds (in DMSO). Compounds were tested using 10 CR, 3-fold dilution series from 500 nM FAC. Two replicates for each assay point were run on the same plate. A fluorescence blank read was taken before substrate addition. […] Plates were incubated for 40 min at rt in the dark. […] IC50 values were determined by plotting % inhibition versus log compound concentration.

hFAP (M39-A757) = hFAP (M39-A757) (Homo sapiens (Human), UniProt Q12884); experiment: hFAP binding assay (surface plasmon resonance); conditions: SPR, 20° C.
Sequence of hFAP (M39-A757) (Q12884 39-757): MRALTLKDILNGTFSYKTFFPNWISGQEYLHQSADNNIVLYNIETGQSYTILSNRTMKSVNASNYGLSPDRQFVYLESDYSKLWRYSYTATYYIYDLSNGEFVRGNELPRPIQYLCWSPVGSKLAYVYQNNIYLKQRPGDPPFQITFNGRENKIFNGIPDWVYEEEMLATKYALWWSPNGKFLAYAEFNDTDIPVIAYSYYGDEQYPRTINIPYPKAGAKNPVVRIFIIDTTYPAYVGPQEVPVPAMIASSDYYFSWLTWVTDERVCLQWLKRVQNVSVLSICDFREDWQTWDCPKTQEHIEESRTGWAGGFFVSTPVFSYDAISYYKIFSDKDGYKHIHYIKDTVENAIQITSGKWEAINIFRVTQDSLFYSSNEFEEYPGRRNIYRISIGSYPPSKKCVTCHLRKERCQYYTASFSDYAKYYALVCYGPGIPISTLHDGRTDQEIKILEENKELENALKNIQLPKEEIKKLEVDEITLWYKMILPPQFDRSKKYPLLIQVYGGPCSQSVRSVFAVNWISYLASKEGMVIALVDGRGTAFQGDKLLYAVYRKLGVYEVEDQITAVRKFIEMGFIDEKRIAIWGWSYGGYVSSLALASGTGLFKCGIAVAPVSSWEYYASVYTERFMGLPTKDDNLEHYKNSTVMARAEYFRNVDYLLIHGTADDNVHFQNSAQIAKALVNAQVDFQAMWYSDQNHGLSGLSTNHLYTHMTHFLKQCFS
Experimental: The hFAP protein used in the Examples was either commercially sourced or produced in insect cells as recombinant hFAP (Gp67-6HN-TEV-FAP (M39-A757), MW 89086.7 Da, or cd33-FAP (27-757)-6His, MW85926 Da).
Immobilization of hFAP (M39-A757) on a CMD200M sensor chip (Xantec) was performed using standard amine coupling procedure in immobilization buffer (10 mM HEPES, 150 mM NaCl, 0.05% Tween20, pH 7.4). The surface was washed with 10 mM NaOH, IM NaCl before being activated with EDC/NHS (GE Healthcare), followed by immobilization of hFAP (in 10 mM Acetate pH 5.0). Finally, the surface was deactivated by ethanolamine. Immobilization levels of hFAP were around 4000-6000 RU. The reference spot was treated as described, omitting the injection of hFAP. Compound concentration series were injected over the immobilized protein in increasing concentrations (2-500 nM) using single cycle kinetics in running buffer (20 mM TRIS, 150 mM NaCl, 0.05% Tween20, 1% DMSO, pH 7.4). Interaction models were fitted globally to the experimental traces, enabling determination of kon, koff and Kd.

Sequence of FAP Cyno Plasma (A0A2K5VGH4 1-745): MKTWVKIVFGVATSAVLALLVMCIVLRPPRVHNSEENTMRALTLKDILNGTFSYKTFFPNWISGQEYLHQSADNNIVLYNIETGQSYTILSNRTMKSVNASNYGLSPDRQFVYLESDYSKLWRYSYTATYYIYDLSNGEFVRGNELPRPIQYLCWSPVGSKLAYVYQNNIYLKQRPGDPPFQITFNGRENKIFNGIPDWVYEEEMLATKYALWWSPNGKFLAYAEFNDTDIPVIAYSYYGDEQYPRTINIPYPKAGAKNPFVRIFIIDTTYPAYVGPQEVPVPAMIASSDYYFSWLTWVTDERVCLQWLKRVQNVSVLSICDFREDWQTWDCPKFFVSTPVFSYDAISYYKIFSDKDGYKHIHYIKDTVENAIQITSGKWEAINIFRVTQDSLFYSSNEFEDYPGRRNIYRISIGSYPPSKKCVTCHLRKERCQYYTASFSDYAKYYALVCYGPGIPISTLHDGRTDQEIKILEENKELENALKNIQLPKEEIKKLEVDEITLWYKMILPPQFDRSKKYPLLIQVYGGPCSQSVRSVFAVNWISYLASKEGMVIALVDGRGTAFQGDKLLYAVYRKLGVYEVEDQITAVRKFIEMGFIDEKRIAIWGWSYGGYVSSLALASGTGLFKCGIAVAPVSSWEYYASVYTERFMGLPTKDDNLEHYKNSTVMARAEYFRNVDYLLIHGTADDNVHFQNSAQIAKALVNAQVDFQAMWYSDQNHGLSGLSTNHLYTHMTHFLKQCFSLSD

## N#C[C@@H]1CSCN1C(=O)CNC(=O)c1ccnc2ccc(N3CCOCC3)cc12 [(R)—N-(2-(4-Cyanothiazolidin-3-yl)-2-oxoethyl)-6-morpholinoquinoline-4-carboxamide]
FAP Cyno Plasma
  IC50: 0.4 nM
hFAP (M39-A757)
  hFAP Binding assay k(off): k(off) = 0.000046 1/s^3
  hFAP Binding assay k(on): k(on) = 4900000 M^−1s^−1
